Data from patent US10570149B2, “Tricyclic heterocylic derivatives” (MERCK PATENT GMBH, priority 2016, dated 2020).

Tested on: phosphorylation of H2AX (gH2AX) in U2OS-TopBP1-ER cells
Test: gH2AX-TopBP1ER cellular assay
Assay type: cell-based
Conditions: Table 1, class symbols, 4-OHT
From the text: gH2AX-TopBP1ER Cellular Assay
ATR activity is restricted to replicating cells and many of its targets can also be phosphorylated by other PIKKs. These restrictions have limited the development of selective cellular assays in the past. In order to overcome these limitations, a previously developed genetically engineered cellular system in which ATR, and only ATR, can be activated at will in every cell (Toledo et al Genes Dev. 22, 297-302 2008) was used. In this system, the addition of 4-hydroxytamoxifen (4-OHT), promotes the nuclear translocation of a fragment of TopBP1 which then activates ATR. The phosphorylation of H2AX that follows 4-OHT addition in these cells is a direct and selective readout of ATR activity, which is not influenced by the rest of PIKKs. This property has been used in a screen for compounds with ATR inhibitory capacity. U2OS-TopBP1-ER cells stably express the TopBP1 activation domain (aa 978-1286) fused to a mutated estrogen receptor ligand binding domain. Nuclear accumulation of the TopBP1-ER-LBD fusion protein is induced by the synthetic ER antagonist 4-hydroxytamoxifen (4-OHT) (and not by natural ER agonists) mediating specific ATR activation that is independent of DNA damage or cell cycle. In the assay phosphorylation of the ATR substrate H2AX (“gH2AX”) at Serin 139 is detected using an immune-cytochemical procedure and high content imaging. For the assay U2OS-TopBP1-ER cells are plated in culture medium (DMEM high Glucose (no phenol red), 2 mM Glutamax, 1 mM Pyruvate, 10% FCS into Greiner 384 well plates, black, μclear #781090 (4000 cells/well/30 μl) and incubated for at least 20 hours at 37° C., 10% CO2 and 90% rH. Diluted test compounds (1 nM-30 μM final) and 4-OHT (1 μM final) are added simultaneously and cells are incubated for 2 h at 37° C. After fixation with 4% formaldehyde and permeabilisation with 0.2% Triton X-100 a complete immunocytochemical procedure is performed using a specific anti-gH2AX-antibody (Millipore 05-636, clone JBW301) and fluorescently labelled secondary antibody (Alexa Fluor® 488 goat anti-mouse F(ab′)2 fragment, Invitrogen A11017) and parallel nuclear staining for cell counting. The nuclear localised gH2AX signal is detected on an ImageXpress Ultra confocal high content reader and reported as % positive cells (nuclei).

IC50 [µM]	SMILES
0.01 to 0.1	C[C@@H]1COC[C@H]2COc3c(nc(-c4c(N)cnc5[nH]ccc45)nc3C(C)(C)S(C)(=O)=O)N21 [A20, 4-[(4bR,8S)-1-(1-Methanesulfonyl-1-methyl-ethyl)-5-methyl-5,6,8a,9-tetrahydro-8H-7,10-dioxa-2,4,4b-triaza-phenanthren-3-yl]-1H-pyrrolo[2,3-b]pyridin-5-ylamine]
0.01 to 0.1	C[C@@H]1COC[C@H]2COc3c(nc(-c4ccnc5[nH]ccc45)nc3C(C)(C)S(C)(=O)=O)N21 [A13, (6R,8aS)-1-(1-Methanesulfonyl-1-methyl-ethyl)-5-methyl-3-(1H-pyrrolo[2,3-b]pyridin-4-yl)-5,6,8a,9-tetrahydro-8H-7,10-dioxa-2,4,4b-triaza-phenanthrene]

SMILES	IC50 [µM]
CNc1cnc2[nH]ccc2c1-c1nc2c(c(C(C)(C)S(C)(=O)=O)n1)OC[C@@H]1COC[C@@H](C)N21 [A1, {4-[(S)-1-(1-Methanesulfonyl-1-methyl-ethyl)-5-(R)-methyl-5,6,8a,9-tetrahydro-8H-7,10-dioxa-2,4,4b-triaza-phenanthren-3-yl]-1H-pyrrolo[2,3-b]pyridin-5-yl}-methyl-amine]	0.01 to 0.1
